Test in all cases: Post-emergence efficacy of compounds of Formula (I) (B1), glasshouse
What all share (assay type): in vivo

One test concerns Eleusine indica (ELEIN). As to conditions: Application Rate 500 g/Ha, evaluated after 13 days; for pest or weed control at 500 g/ha: Eleusine indica, post-emergence, 312 h, read-out: Control of ELEIN after post-emergence application (100=total damage to plant; 0=no damage to plant). The protocol:
(§1) Seeds of a variety of test species were sown in standard Iaom-based soil in pots:— Ipomoea hederacea (IPOHE), Euphorbia heterophylla (EPHHL), Chenopodium album (CHEAL), Amaranthus palmeri (AMAPA), Lolium perenne (LOLPE), Digitaria sanguinalis (DIGSA), Eleusine indica (ELEIN), Echinochloa crus-galli (ECHCG), Setaria faberi (SETFA). After cultivation for 14 days (post-emergence) under controlled conditions in a glasshouse (at 24/16° C., day/night; 14 hours light; 65% humidity), the plants were sprayed with an aqueous spray solution derived from the dissolution of the technical active ingredient Formula (I) in a small amount of acetone and a special solvent and emulsifier mixture referred to as IF50 (11.12% Emulsogen EL360 TM+44.44% N-methylpyrrolidone+44.44% Dowanol DPM glycol ether), to create a 50 g/I solution which was then diluted to required concentration using 0.25% or 1% Empicol ESC70 (Sodium lauryl ether sulphate)+1% ammonium sulphate as diluent. The delivery of the aqueous spray solution was via a laboratory track sprayer which delivered the aqueous spray composition at a rate of 200 litres per hectare, using a flat fan nozzle (Teejet 11002VS) and an application volume of 200 litre/ha (at 2 bar).
(§2) The test plants were then grown in a glasshouse under controlled conditions (at 24/16° C., day/night; 14 hours light; 65% humidity) and watered twice daily. After 13 days the test was evaluated (100=total damage to plant; 0=no damage to plant).

Test [1] deals with Echinochloa crus-galli (ECHCG). To be noted: Application Rate 500 g/Ha, evaluated after 13 days; for pest or weed control at 500 g/ha: Echinochloa crus-galli, post-emergence, 312 h, read-out: Control of ECHCG after post-emergence application (100=total damage to plant; 0=no damage to plant). On the procedure: as §1, §2
In the next test the test system is Lolium perenne (LOLPE). To be noted: Application Rate 500 g/Ha, evaluated after 13 days; for pest or weed control at 500 g/ha: Lolium perenne, post-emergence, 312 h, read-out: Control of LOLPE after post-emergence application (100=total damage to plant; 0=no damage to plant). The protocol: as §1, §2
The subject of the next test is Setaria faberi (SETFA). As to conditions: Application Rate 500 g/Ha, evaluated after 13 days; for pest or weed control at 500 g/ha: Setaria faberi, post-emergence, 312 h, read-out: Control of SETFA after post-emergence application (100=total damage to plant; 0=no damage to plant). On the procedure:
as §1, §2

For test [2], the system named is Chenopodium album (CHEAL). As to conditions: Application Rate 500 g/Ha, evaluated after 13 days; for pest or weed control at 500 g/ha: Chenopodium album, post-emergence, 312 h, read-out: Control of CHEAL after post-emergence application (100=total damage to plant; 0=no damage to plant). The protocol:
as §1, §2

Test [3] relates to Euphorbia heterophylla (EPHHL). To be noted: Application Rate 500 g/Ha, evaluated after 13 days; for pest or weed control at 500 g/ha: Euphorbia heterophylla, post-emergence, 312 h, read-out: Control of EPHHL after post-emergence application (100=total damage to plant; 0=no damage to plant). On the procedure:
as §1, §2

For test [4], the system named is Ipomoea hederacea (IPOHE). To be noted: Application Rate 500 g/Ha, evaluated after 13 days; for pest or weed control at 500 g/ha: Ipomoea hederacea, post-emergence, 312 h, read-out: Control of IPOHE after post-emergence application (100=total damage to plant; 0=no damage to plant). On the procedure:
as §1, §2

Test [5] relates to Digitaria sanguinalis (DIGSA). As to conditions: Application Rate 500 g/Ha, evaluated after 13 days; for pest or weed control at 500 g/ha: Digitaria sanguinalis, post-emergence, 312 h, read-out: Control of DIGSA after post-emergence application (100=total damage to plant; 0=no damage to plant). The protocol:
as §1, §2

For test [6], the system named is Amaranthus palmeri (AMAPA). As to conditions: Application Rate 500 g/Ha, evaluated after 13 days; for pest or weed control at 500 g/ha: Amaranthus palmeri, post-emergence, 312 h, read-out: Control of AMAPA after post-emergence application (100=total damage to plant; 0=no damage to plant). The protocol:
as §1, §2

Here are results for 10 molecules from patent US20220095618A1, “HERBICIDAL COMPOSITIONS” (SYNGENTA CROP PROTECTION AG, priority 2019, published 2022).

As to `CC(C)(CC(=O)O)[n+]1ccc(-c2ncccn2)cn1` [Compound 1.025, 3-methyl-3-(4-pyrimidin-2-ylpyridazin-1-ium-1-yl)butanoic acid 2,2,2-trifluoroacetate], the pest or weed control at 500 g/ha amounted to 100% in the test with Eleusine indica (ELEIN); 100% in [1]; 30% with Lolium perenne (LOLPE); 100% in the test on Setaria faberi (SETFA); 70% in [2]; 40% in test [3]. The pest or weed control at 500 g/ha in test [4] was 50%; in test [5] it was 90%; in [6] it was 100%.

Regarding `CC(C[n+]1ccc(-c2ncccn2)cn1)S(=O)(=O)[O-]` (stereo not drawn) [Compound 1.026, 1-(4-pyrimidin-2-ylpyridazin-1-ium-1-yl)propane-2-sulfonate], the pest or weed control at 500 g/ha with Eleusine indica (ELEIN) turned out to be 100%; in [1], 80%; in the test on Lolium perenne (LOLPE) it was 80%; in the test with Setaria faberi (SETFA), 100%; in test [2] it was 80%; in test [3], 90%. Also, the pest or weed control at 500 g/ha turned out to be 70% in test [4], 100% in test [5] and 100% in [6].

`O=C(O)CC[n+]1ccc(-c2cccnn2)cn1.[Cl-]` [Compound 1.027, 3-(4-pyridazin-3-ylpyridazin-1-ium-1-yl)propanoic acid chloride]: the pest or weed control at 500 g/ha in the test on Eleusine indica (ELEIN) is 80%; in the test with Lolium perenne (LOLPE) it was 100%. The “Control of ECHCG after post-emergence application (100=total damage to plant; 0=no damage to plant)” value in test [1] is 100. In addition, the “Control of SETFA after post-emergence application (100=total damage to plant; 0=no damage to plant)” value with Setaria faberi (SETFA) was 100. The “Control of CHEAL after post-emergence application (100=total damage to plant; 0=no damage to plant)” value in test [2] stood at 100. The “Control of EPHHL after post-emergence application (100=total damage to plant; 0=no damage to plant)” value in [3] amounted to 100. In addition, the “Control of IPOHE after post-emergence application (100=total damage to plant; 0=no damage to plant)” value in [4] amounted to 30. Besides, the “Control of DIGSA after post-emergence application (100=total damage to plant; 0=no damage to plant)” value in test [5] is recorded as 100. In addition, the “Control of AMAPA after post-emergence application (100=total damage to plant; 0=no damage to plant)” value in test [6] turned out to be 100.

Regarding `O=S(=O)([O-])CC(O)C[n+]1ccc(-c2ncccn2)cn1` (stereo not drawn) [Compound 1.028], the pest or weed control at 500 g/ha in the test on Eleusine indica (ELEIN) is 100%; in test [1], 100%; in the test on Lolium perenne (LOLPE) it was 70%; in the test on Setaria faberi (SETFA), 100%; in test [2], 90%; in test [3], 80%. The pest or weed control at 500 g/ha in test [4] came to 30%; in test [5], 90%; in test [6] it was 100%.

For `N[C@H](CC[n+]1ccc(-c2ncccn2)cn1)C(=O)O` [Compound 1.029, [(1R)-1-carboxy-3-(4-pyrimidin-2-ylpyridazin-1-ium-1-yl)propyl]-ammonium 2,2,2-trifluoroacetate], the pest or weed control at 500 g/ha worked out at 100% in the test on Eleusine indica (ELEIN); 60% in test [1]; 20% in the test on Lolium perenne (LOLPE); 100% in the test with Setaria faberi (SETFA); 100% in test [2]; 90% in test [3]. In addition, the pest or weed control at 500 g/ha in test [4] came to 90%; in [5], 90%; in test [6], 100%.

`N[C@@H](CCC[n+]1ccc(-c2ncccn2)cn1)C(=O)O` [Compound 1.030, [(1S)-1-carboxy-4-(4-pyrimidin-2-ylpyridazin-1-ium-1-yl)butyl]-ammonium dichloride]: the pest or weed control at 500 g/ha was determined as 90% in the test on Eleusine indica (ELEIN); 100% in test [1]; 60% in the test on Lolium perenne (LOLPE); 100% in the test with Setaria faberi (SETFA); 100% in [2]; 100% in test [3]. Further, the results for the pest or weed control at 500 g/ha in test [4], in test [5] and in test [6] were 60%, 100% and 100%, respectively.

In the case of `Cl.O=S(=O)([O-])CC[n+]1ccc(-c2cccnn2)cn1` [Compound 1.031, 2-(4-pyridazin-1-ium-3-ylpyridazin-1-ium-1-yl)ethanesulfonate chloride], the pest or weed control at 500 g/ha with Eleusine indica (ELEIN) came out at 100%; in [1], 100%; in the test on Lolium perenne (LOLPE), 90%; in the test with Setaria faberi (SETFA), 100%; in test [2], 90%; in [3], 100%. The pest or weed control at 500 g/ha in test [5] and in test [6] was 100% in each case. In [4], the “Control of IPOHE after post-emergence application (100=total damage to plant; 0=no damage to plant)” value is reported as 70.

For `N#C[N-]C(=O)CC[n+]1ccc(-c2ncccn2)cn1` [Compound 1.033], the pest or weed control at 500 g/ha in the test on Eleusine indica (ELEIN) was 100%; in test [1] it was 90%; with Lolium perenne (LOLPE), 90%; in the test with Setaria faberi (SETFA), 90%; in [2], 100%; in [3], 100%. The pest or weed control at 500 g/ha in test [4] is 50%; in test [5], 100%; in [6], 100%.

As for `Cl.O=C(O)CC[n+]1ccc(-c2cccnn2)cn1.[Cl-]` [Compound 1.034, 3-(4-pyridazin-1-ium-3-ylpyridazin-1-ium-1-yl)propanoic acid dichloride], the “Control of ELEIN after post-emergence application (100=total damage to plant; 0=no damage to plant)” value with Eleusine indica (ELEIN) is listed as 100. In addition, the pest or weed control at 500 g/ha (in test [1]; in the test with Setaria faberi (SETFA); in [2]; in test [3]; in [5]; in test [6]) was 100% throughout. Also, the “Control of LOLPE after post-emergence application (100=total damage to plant; 0=no damage to plant)” value in the test with Lolium perenne (LOLPE) is on record as 90. Also, the “Control of IPOHE after post-emergence application (100=total damage to plant; 0=no damage to plant)” value in [4] amounted to 60.

For the molecule `N[C@@H](CC[n+]1ccc(-c2ncccn2)cn1)C(=O)O` [Compound 1.035, [(1S)-1-carboxy-3-(4-pyrimidin-2-ylpyridazin-1-ium-1-yl)propyl]-ammonium 2,2,2-trifluoroacetate], the pest or weed control at 500 g/ha was 100% with Eleusine indica (ELEIN); 60% in test [1]; 20% in the test with Lolium perenne (LOLPE); 100% in the test with Setaria faberi (SETFA); 100% in test [2]; 90% in test [3]. The results for the pest or weed control at 500 g/ha in test [4], in test [5] and in [6] were 90%, 90% and 100%, respectively.
